Results taken from ChEMBL document CHEMBL3580584, “Antibacterial Balsacones J-M, Hydroxycinnamoylated Dihydrochalcones from Populus balsamifera Buds” (J Nat Prod, 2015).

Tested on: Staphylococcus aureus
Test: Antibacterial activity against Staphylococcus aureus ATCC 25923 assessed as growth inhibition after 24 hrs by microdilution method
Type: functional, organism-based

Row | Molecule | IC50 (Staphylococcus aureus, ATCC 25923, 24 h) | IC50
1 | O=C(N[C@H](CO)[C@H](O)c1ccc([N+](=O)[O-])cc1)C(Cl)Cl [CHLORAMPHENICOL] | 430 nM | –
2 | GENTAMICIN | – | 10 nM
